Calls of active or inactive are those of the source.
Experiments:
[1] = CRF-BP/CRF-R2 complex antagonists, dose response, cell-based, uHTS hits, 384-well (AID 651639); type: functional, Homo sapiens; conditions: read-out: IC50_Mean
[2] = target: T1, Corticotropin-releasing factor receptor 2/Corticotropin-releasing factor-binding protein (Homo sapiens, UniProt P24387+Q13324); assay: activators of CRF receptor 2 with binding protein – uHTS hits, confirmation (AID 602473); type: functional; conditions: read-out: EC50_Mean
T1 sequence (Q13324 whole entry): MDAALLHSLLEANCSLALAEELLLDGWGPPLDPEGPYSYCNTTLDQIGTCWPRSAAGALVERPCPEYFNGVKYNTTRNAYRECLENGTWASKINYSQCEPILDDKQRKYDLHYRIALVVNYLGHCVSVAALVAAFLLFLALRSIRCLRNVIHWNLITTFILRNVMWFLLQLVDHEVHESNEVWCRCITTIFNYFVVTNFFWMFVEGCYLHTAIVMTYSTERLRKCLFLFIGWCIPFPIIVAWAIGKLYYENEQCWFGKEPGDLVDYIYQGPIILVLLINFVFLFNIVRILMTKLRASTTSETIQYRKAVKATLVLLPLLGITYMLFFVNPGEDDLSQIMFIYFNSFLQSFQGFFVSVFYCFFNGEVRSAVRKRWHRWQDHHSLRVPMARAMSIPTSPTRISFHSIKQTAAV
T1 sequence (P24387 whole entry): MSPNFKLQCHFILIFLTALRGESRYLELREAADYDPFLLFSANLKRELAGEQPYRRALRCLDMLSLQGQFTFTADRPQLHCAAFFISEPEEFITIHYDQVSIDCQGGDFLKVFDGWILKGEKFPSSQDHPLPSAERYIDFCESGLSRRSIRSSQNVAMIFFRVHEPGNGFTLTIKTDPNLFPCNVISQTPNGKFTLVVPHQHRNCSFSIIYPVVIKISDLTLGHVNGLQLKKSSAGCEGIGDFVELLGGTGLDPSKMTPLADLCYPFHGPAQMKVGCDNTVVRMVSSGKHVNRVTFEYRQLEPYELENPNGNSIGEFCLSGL

[3] = target: T1, Corticotropin-releasing factor receptor 2/Corticotropin-releasing factor-binding protein; assay: Dose Response confirmation of uHTS hits for small molecule antagonists of the CRF-binding protein and CRF-R2 receptor complex.; type: functional; conditions: read-out: IC50_Mean
[4] = human group III sPLA2 inhibitors, dose response, biochemical, QFRET, IC50 (AID 743457);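 further: green fluorescence rise as the enzyme cleaves BODIPY PC-A2 in liposomes; potency for inhibition of the enzyme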
[5] = target: Oxysterols receptor LXR-beta (Homo sapiens, UniProt P55055); type: functional, cell-based;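 further: Cell-based luminescence dose-response assay of agonist activity at LXR, run as a confirmatory counterscreen to a daf-12 agonist screen; HEK293 cells with Gal4-LXR fusion and GAL4-driven luciferase reporter; agonist potency from rising luciferase signal of a Gal4-LXR reporter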
cells [6] = assay: cells
[7] = target: T2, DNA repair protein RAD52 homolog (Homo sapiens, UniProt P43351); type: functional, biochemical
T2 sequence (P43351 whole entry): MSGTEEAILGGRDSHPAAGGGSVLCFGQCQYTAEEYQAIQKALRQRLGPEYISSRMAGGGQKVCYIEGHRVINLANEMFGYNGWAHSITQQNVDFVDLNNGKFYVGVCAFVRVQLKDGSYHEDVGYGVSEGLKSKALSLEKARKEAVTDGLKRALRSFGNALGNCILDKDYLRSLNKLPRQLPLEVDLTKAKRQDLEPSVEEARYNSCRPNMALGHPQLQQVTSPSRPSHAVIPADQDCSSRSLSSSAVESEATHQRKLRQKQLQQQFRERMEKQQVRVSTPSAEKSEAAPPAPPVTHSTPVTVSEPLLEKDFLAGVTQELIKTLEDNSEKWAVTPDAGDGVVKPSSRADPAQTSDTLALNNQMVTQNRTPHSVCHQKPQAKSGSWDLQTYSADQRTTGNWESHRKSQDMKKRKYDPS

[8] = inhibitors of intracellular T. cruzi replication, confirmation, NIH3T3 host cells, beta-gal luminescence (AID 2044); type: functional, cell-based;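 further: intracellular parasites grown in NIH/3T3 mouse fibroblasts as host cells; luminescent beta-galactosidase reporter signal from transgenic T. cruzi replicating inside host cells; inhibitors lower the luminescence signal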
[9] = cytotoxicity toward NIH3T3 fibroblasts, dose response, counter-screen, cell-based, ATP luminescence, mouse fibroblasts (AID 2010); type: functional;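 further: cells exposed to compound for about 90 hours before reading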
[10] = target: T3, DNA repair and recombination protein RAD54-like (Homo sapiens, UniProt Q92698); assay: inhibitors of human RAD54 branch migration, confirmation, biochemical, fluorescence, cherry-picked samples, dose series (AID 651657); type: functional
T3 sequence (Q92698 whole entry): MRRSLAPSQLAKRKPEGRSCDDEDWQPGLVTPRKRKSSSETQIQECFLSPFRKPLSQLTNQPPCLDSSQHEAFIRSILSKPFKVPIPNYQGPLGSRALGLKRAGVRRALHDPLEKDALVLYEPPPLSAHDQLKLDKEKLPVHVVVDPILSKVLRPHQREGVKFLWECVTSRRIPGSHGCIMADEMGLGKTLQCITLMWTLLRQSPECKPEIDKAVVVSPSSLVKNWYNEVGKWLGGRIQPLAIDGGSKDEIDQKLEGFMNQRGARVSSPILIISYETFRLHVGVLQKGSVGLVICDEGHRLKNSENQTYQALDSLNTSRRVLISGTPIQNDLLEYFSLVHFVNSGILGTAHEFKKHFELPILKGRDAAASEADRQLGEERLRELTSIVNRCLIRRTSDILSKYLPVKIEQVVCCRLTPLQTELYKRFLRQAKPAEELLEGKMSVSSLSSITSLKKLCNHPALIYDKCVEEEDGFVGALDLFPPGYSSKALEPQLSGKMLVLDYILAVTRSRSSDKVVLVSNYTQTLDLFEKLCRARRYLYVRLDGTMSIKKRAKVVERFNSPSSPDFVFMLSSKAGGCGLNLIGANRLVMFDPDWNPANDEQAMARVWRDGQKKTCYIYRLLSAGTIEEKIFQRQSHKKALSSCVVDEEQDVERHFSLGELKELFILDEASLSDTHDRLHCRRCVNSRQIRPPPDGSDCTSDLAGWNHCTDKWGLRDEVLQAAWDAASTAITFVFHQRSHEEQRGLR

[11] = MDA-MB-231 cell growth inhibition, dose response, cytotoxicity control for RAD54 inhibitor project, CellTiter-Glo luminescence, cherry-pick (AID 651692); type: functional, cell-based
Cytochrome P450 3A4 = Cytochrome P450 3A4 (Homo sapiens, UniProt P08684); conditions: Potency;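 further: confirmatory qHTS run detecting inhibitors and substrates of CYP3A4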
[12] = HEK293T cytotoxicity, dose response, cytotoxicity control for miR-122 modulator project, cell-based, inhibitor set, cherry-pick, set 2 (AID 720697); type: functional
cells [13] = type: functional, cell-based
[14] = target: T4, Sentrin-specific protease 1 (Homo sapiens, UniProt Q9P0U3); assay: potency of human SENP1 inhibitors, dose response, biochemical, kinetic FRET (AID 651697); type: functional; conditions: read-out: IC50_Mean
T4 sequence (Q9P0U3 whole entry): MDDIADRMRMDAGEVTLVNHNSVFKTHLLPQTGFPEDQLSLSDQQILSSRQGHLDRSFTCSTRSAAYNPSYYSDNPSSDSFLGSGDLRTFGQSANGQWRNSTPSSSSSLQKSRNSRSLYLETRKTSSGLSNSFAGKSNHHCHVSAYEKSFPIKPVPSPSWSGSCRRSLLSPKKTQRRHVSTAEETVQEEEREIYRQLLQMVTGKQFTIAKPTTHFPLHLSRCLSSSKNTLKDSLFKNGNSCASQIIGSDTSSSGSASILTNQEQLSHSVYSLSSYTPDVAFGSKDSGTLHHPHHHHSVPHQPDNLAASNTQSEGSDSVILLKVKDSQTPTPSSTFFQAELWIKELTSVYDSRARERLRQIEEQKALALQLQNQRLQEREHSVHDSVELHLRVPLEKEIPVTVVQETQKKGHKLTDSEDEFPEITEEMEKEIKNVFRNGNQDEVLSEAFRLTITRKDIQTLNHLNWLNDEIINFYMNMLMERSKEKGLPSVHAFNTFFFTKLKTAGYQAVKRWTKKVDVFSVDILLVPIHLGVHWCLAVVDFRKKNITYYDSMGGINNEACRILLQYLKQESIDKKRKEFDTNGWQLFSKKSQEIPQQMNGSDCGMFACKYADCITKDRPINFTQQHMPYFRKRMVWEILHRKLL

[15] = target: T4, Sentrin-specific protease 1; assay: Dose response confirmation of small molecule inhibitors of the catalytic domain of the SUMO protease, SENP1 in a FRET assay.; type: functional; conditions: read-out: IC50_Mean
[16] = target: Disintegrin and metalloproteinase domain-containing protein 17 (Homo sapiens, UniProt P78536); assay: exosite inhibitors of ADAM17, dose response, biochemical (AID 743260)
[17] = ADAM10 protease inhibitors, dose response, selectivity assay for ADAM17 exosite inhibitor project, biochemical, FRET peptide substrate, recombinant human ADAM10 (AID 743259);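 further: ADAM10 enzyme cleaving a FRET peptide substrate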
[18] = target: T5, Sentrin-specific protease 8 (Homo sapiens, UniProt Q96LD8); type: functional
T5 sequence (Q96LD8 whole entry): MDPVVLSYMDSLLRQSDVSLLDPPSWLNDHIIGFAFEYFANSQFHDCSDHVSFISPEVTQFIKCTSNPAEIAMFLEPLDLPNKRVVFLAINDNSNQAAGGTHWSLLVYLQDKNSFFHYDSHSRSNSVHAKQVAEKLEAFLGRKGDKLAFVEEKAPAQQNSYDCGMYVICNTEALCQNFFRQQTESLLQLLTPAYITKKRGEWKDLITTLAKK

[19] = target: T5, Sentrin-specific protease 8; type: functional; remark: listed apart in the source
[20] = target: Long-chain-fatty-acid--AMP ligase FadD28 (Mycobacterium tuberculosis, UniProt P9WQ59); assay: Fluorescence polarization aasay to screen for inhibitors that compete for the binding of FadD28 to a bisubstrate Measured in Biochemical System Using Plate Reader - 2147-01_Inhibitor_Dose_CherryPick_Activity.; type: functional, Mycobacterium tuberculosis H37Rv
[21] = target: Arf-GAP with SH3 domain, ANK repeat and PH domain-containing protein 1 (Homo sapiens, UniProt Q9ULH1); type: functional;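 further: biochemical fluorescence polarization dose–response screen measuring inhibition of ASAP1; ASAP1 GAP domain stimulating GTP hydrolysis by truncated human ARF1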
[22] = target: ADP-ribosylation factor GTPase-activating protein 1 (Rattus norvegicus, UniProt Q62848); assay: Fluorescence polarization-based biochemical high throughput dose response screening assay to identify inhibitors of ADP-ribosylation factor GTPase activating protein 1 (ARFGAP1).; type: functional
[23] = target: Photoreceptor-specific nuclear receptor (Homo sapiens, UniProt Q9Y5X4); type: functional, cell-based;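 further: CHO-S cells with Gal4-NCOR and VP16-NR2E3 two-hybrid luciferase reporter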
[24] = target: T6, Rac GTPase-activating protein 1 (Homo sapiens, UniProt Q9H0H5); assay: MgcRacGAP GTPase-activating activity inhibitors, confirmation, biochemical, ADP Hunter fluorescence, primary and confirmatory (AID 624330); type: functional
T6 sequence (Q9H0H5 whole entry): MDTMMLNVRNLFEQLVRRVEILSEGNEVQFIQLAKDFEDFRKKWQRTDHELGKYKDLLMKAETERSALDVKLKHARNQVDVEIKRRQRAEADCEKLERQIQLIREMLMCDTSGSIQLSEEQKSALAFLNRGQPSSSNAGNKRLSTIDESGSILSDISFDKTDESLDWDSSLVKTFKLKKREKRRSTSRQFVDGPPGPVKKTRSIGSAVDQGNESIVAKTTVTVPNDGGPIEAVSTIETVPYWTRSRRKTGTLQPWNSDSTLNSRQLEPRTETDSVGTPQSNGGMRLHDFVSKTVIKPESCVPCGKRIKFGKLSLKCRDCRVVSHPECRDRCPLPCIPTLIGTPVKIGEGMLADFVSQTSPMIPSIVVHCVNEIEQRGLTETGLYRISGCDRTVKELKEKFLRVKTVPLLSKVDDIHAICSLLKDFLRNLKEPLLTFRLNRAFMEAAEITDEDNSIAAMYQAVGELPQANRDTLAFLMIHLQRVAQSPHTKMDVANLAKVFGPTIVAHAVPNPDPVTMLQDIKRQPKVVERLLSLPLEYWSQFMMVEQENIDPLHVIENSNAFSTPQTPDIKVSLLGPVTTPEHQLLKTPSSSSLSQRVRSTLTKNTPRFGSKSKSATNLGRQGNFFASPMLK

[25] = HeLa cell cytotoxicity, dose response, cytotoxicity control for MgcRacGAP inhibitor project (AID 624300); type: functional

Chain of Long-chain-fatty-acid--AMP ligase FadD28 (P9WQ59 whole entry, the tested form may be a part): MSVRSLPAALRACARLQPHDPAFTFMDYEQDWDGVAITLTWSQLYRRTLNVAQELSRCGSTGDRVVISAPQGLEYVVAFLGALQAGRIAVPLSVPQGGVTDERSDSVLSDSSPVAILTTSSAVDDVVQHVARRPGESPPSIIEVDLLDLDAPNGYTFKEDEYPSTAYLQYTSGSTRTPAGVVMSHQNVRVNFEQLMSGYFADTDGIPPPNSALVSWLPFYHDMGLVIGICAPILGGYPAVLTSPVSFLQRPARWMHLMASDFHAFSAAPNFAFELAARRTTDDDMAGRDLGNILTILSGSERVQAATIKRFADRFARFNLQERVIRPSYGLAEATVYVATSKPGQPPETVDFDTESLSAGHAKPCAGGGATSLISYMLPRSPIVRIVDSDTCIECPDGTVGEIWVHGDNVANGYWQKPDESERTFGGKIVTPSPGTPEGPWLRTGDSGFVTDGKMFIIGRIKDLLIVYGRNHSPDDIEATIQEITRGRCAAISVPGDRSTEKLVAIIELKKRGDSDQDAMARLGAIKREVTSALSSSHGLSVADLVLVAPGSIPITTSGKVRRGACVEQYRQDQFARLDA
Chain of Oxysterols receptor LXR-beta (P55055 whole entry, the tested form may be a part): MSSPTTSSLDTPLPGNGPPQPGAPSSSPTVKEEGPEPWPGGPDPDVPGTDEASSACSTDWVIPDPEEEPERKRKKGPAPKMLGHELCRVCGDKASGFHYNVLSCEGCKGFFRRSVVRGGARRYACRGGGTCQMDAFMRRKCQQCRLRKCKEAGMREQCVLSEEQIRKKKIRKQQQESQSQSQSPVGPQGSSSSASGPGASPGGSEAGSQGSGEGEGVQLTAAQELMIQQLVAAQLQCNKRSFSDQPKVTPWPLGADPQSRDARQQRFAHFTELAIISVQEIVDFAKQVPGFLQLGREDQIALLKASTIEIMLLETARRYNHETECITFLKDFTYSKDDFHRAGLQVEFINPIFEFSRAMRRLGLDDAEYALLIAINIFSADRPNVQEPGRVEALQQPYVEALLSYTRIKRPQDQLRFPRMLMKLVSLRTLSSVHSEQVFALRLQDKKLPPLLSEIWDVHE
Chain of Disintegrin and metalloproteinase domain-containing protein 17 (P78536 whole entry, the tested form may be a part): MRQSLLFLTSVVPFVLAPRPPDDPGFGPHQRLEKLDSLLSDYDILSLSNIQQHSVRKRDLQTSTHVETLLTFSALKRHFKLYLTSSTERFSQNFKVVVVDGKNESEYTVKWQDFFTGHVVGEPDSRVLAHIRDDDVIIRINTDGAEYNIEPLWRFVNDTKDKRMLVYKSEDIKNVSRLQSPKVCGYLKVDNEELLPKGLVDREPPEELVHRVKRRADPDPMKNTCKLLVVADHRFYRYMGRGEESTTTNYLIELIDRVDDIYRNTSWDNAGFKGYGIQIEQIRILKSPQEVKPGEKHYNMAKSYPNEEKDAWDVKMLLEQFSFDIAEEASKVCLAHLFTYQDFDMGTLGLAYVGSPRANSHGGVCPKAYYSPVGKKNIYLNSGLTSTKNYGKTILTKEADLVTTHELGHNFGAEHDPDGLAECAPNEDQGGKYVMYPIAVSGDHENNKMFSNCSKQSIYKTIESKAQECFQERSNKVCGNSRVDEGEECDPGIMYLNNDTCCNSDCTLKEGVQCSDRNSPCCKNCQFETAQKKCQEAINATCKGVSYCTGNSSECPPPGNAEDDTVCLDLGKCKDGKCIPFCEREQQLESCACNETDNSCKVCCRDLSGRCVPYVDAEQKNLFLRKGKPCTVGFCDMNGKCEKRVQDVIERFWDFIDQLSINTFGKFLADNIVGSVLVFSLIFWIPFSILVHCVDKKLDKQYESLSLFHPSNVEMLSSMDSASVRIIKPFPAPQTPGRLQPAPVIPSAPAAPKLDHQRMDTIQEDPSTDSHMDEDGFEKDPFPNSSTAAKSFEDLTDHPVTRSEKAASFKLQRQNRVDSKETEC
Chain of ADP-ribosylation factor GTPase-activating protein 1 (Q62848 whole entry, the tested form may be a part): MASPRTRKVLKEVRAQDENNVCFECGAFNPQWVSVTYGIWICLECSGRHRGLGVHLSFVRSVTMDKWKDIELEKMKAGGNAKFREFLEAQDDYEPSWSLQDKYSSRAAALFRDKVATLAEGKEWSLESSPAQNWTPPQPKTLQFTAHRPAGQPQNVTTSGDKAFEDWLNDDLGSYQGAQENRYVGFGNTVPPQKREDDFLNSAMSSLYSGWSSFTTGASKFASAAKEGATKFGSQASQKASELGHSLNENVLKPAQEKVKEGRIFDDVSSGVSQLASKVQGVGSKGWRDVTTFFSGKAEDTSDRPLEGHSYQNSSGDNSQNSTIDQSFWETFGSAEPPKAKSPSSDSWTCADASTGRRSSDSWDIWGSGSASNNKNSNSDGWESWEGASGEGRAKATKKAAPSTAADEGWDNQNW
Chain of Arf-GAP with SH3 domain, ANK repeat and PH domain-containing protein 1 (Q9ULH1 whole entry, the tested form may be a part): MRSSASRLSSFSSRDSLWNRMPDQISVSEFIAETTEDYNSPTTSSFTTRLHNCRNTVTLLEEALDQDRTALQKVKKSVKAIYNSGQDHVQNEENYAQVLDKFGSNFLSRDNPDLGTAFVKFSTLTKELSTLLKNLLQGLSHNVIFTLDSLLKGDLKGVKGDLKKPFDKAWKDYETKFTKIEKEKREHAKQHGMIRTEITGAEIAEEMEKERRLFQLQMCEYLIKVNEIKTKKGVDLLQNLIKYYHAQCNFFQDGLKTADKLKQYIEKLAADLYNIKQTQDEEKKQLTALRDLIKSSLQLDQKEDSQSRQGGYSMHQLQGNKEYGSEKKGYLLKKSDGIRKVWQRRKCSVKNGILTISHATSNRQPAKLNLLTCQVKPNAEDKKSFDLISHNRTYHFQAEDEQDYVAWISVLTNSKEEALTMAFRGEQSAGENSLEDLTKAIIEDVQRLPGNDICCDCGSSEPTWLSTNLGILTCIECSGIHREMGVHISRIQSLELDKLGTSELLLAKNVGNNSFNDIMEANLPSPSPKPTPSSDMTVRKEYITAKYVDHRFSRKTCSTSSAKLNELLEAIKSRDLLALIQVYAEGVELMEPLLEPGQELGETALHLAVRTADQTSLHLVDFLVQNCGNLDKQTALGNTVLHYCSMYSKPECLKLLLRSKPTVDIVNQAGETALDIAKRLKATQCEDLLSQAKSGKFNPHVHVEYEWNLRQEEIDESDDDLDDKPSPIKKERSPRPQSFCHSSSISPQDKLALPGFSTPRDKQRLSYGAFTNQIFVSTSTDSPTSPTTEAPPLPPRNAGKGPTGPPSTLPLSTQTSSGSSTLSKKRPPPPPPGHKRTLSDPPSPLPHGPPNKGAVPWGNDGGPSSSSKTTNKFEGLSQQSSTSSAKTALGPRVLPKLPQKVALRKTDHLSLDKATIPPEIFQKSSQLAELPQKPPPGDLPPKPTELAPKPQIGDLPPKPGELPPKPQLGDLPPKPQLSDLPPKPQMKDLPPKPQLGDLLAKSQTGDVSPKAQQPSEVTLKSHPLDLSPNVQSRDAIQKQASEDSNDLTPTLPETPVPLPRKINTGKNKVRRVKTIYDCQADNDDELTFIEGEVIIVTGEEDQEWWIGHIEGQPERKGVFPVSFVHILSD
Chain of Cytochrome P450 3A4 (P08684 whole entry): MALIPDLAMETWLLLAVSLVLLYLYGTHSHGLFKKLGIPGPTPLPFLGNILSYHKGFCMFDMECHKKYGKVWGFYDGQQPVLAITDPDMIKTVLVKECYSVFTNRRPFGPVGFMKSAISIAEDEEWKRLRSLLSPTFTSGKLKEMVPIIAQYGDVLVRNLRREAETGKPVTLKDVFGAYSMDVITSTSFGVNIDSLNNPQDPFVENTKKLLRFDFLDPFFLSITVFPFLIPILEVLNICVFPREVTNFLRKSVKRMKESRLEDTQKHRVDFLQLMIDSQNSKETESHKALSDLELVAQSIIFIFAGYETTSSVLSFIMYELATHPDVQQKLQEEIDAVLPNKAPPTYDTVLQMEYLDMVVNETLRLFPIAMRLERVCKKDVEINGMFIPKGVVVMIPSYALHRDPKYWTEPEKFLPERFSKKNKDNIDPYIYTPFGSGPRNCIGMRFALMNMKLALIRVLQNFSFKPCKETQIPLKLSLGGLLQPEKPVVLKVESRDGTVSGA
Chain of Photoreceptor-specific nuclear receptor (Q9Y5X4 whole entry, the tested form may be a part): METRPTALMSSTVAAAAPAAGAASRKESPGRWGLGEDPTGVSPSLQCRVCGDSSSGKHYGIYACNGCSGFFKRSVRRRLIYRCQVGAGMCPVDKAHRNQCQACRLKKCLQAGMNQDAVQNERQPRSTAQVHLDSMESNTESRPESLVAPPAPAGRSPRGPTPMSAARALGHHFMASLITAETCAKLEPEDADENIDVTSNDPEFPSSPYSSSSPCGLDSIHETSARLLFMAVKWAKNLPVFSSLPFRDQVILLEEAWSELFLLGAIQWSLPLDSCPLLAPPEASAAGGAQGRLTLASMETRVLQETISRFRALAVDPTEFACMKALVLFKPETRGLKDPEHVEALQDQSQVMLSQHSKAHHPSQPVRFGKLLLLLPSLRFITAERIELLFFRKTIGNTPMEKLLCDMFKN

## Cc1ccc(N(C(=O)c2nsc(Cl)c2Cl)C(C(=O)NC2CCCC2)c2ccc(O)cc2)cc1C (stereo not given)
[1]
  IC50: > 20 µM (inactive)
[2]
  EC50: > 53 µM (inactive)
[3]
  IC50: 5.91 µM (active)

## CC(C)Oc1ccc(CC(=O)NN=C(S)Nc2ccccc2)cc1
[4]
  IC50: > 122 µM (inactive)

## Fc1cccc(Cl)c1/C=C/c1cnc2ccccc2n1
[5]
  EC50: > 67.5 µM (inactive)
Cells [6]
  EC50: > 67.5 µM (inactive)

## CCN(CC)CCCN(C(=O)c1ccco1)c1nc(-c2ccc(Cl)cc2)cs1
[7]
  AC50: 19.2 µM (active)
[8]
  EC50: 0.87 µM (active)
[9]
  EC50: 9.32 µM (active)
[10]
  AC50: 45.1 µM (active)
[11]
  AC50: 22.9 µM (active)

## Oc1cc(Cl)c(Cl)c(Cl)c1
Cytochrome P450 3A4
  AC50: 12.6 µM (inconclusive)
[1]
  IC50: > 20 µM (inactive)
[2]
  EC50: > 53 µM (inactive)
[3]
  IC50: 9.09 µM (active)

## CCCCN1C=C(C(=O)OC)C(c2ccccc2C(F)(F)F)C(C(=O)OC)=C1
[12]
  AC50: 8.63 µM (active)

## Cc1c(Cl)c(C(=O)NN=C(S)Nc2ccccc2)nn1C
[4]
  IC50: > 122 µM (inactive)

## CCc1nnc(NS(=O)(=O)c2ccc(N/C=C3/C(=O)NC(=O)N(c4ccccc4)C3=O)cc2)s1
Cells [13]
  IC50: 64.4 µM (inactive)

## Cc1cc2c(cc1C)NP(=S)(c1ccccc1)N2
[5]
  EC50: > 67.6 µM (inactive)
Cells [6]
  EC50: > 67.6 µM (inactive)

## Cc1c(N2C(=O)/C(=C/c3ccc(N(C)C)cc3)N(C)C2=S)c(=O)n(-c2ccccc2)n1C
[14]
  IC50: 19.5 µM (active)
[15]
  IC50: 36.2 µM (inactive)

## C=CCC[C@@H](Cc1ccc(F)cc1)C(=O)OC[C@@H]1CCCN1C(=O)[C@H](CC=C)CC(=O)N[C@H](CO)Cc1ccccc1
[16]
  IC50: > 69.5 µM (inactive)
[17]
  IC50: 15.2 µM (inactive)

## CCc1nc2ccc(C(=O)Nc3ccc4c(c3)OCC(=O)N4)cn2c1N(CC)Cc1cccc(Br)c1
[16]
  IC50: > 69.5 µM (inactive)
[17]
  IC50: > 69.5 µM (inactive)

## COc1ccc(C(=O)N2C=Cc3ccccc3C2C#N)cc1 (stereo not given)
[18]
  IC50: 5.74 µM (active)
[19]
  IC50: > 100 µM (inactive)

## Cn1c(=O)c2cc(NC(=S)NC3CCCCC3)ccc2n1Cc1ccc(Cl)cc1
[20]
  AC50: 58 µM (active)

## COc1cc2c(cc1NC(=O)c1ccccc1-c1ccccc1C(=O)O)-c1ccccc1C2
[20]
  AC50: > 100 µM (inactive)

## O=C(NCc1ccncc1)C(=O)N/N=C/c1ccc(OCc2ccccc2)cc1
[21]
  IC50: 13.2 µM (inactive)
[22]
  IC50: 10.3 µM (inactive)

## C[C@H]1CCC/C=C/[C@@H]2C[C@H](O)C[C@H]2[C@H](O)[C@H]([S+]([O-])c2ccc(O)cc2)CC(=O)O1 (stereo not given in full)
[23]
  IC50: 2.05 µM (active)
[24]
  IC50: 231 µM (active)
[25]
  CC50: 4.03 µM (active)

Source: ChEMBL document CHEMBL1201862, “PubChem BioAssay data set” (2004)
